Assay results taken from ChEMBL document CHEMBL3352393, “Gallic acid, one of the components in many plant tissues, is a potential inhibitor for insulin amyloid fibril formation” (Eur J Med Chem, 2014).
The source made the active and inactive calls. The rule behind the calls is not given here.

How the values were obtained:
[1] = species on record: Homo sapiens; assay: Inhibition of insulin fibril formation (unknown origin) assessed as decrease in ThT fluorescence at 1:5 insulin to compound ratio at pH2 up to 12 hrs by ThT binding assay
[2] = species on record: Homo sapiens; assay: Inhibition of insulin fibril formation (unknown origin) assessed as turbidity at 1:10 insulin to compound ratio at pH2 up to 12 hrs by UV/vis spectrometry
[3] = species on record: Homo sapiens; assay: Inhibition of insulin fibril formation (unknown origin) assessed as secondary structural changes at 1:5 insulin to compound ratio at pH2 up to 12 hrs by Far-UV CD spectra
[4] = species on record: Homo sapiens; assay: Inhibition of insulin fibril formation (unknown origin) assessed as turbidity at 1:50 insulin to compound ratio at pH2 up to 12 hrs by UV/vis spectrometry; conditions: concentration not given here
[5] = species on record: Homo sapiens; assay: Inhibition of insulin fibril formation (unknown origin) assessed as decrease in ThT fluorescence at 1:50 insulin to compound ratio at pH2 up to 12 hrs by ThT binding assay
[6] = species on record: Homo sapiens; assay: Inhibition of insulin fibril formation (unknown origin) assessed as turbidity at pH2 up to 12 hrs by UV/vis spectrometry
[7] = species on record: Homo sapiens; assay: Inhibition of insulin fibril formation (unknown origin) assessed as turbidity at 1:5 insulin to compound ratio at pH2 up to 12 hrs by UV/vis spectrometry; conditions: concentration not given here
[8] = species on record: Homo sapiens; assay: Inhibition of insulin fibril formation (unknown origin) assessed as secondary structural changes at 1:5 insulin to compound ratio at pH2 up to 12 hrs by FT-IR technique
[9] = species on record: Homo sapiens; assay: Inhibition of insulin fibril formation (unknown origin) assessed as turbidity at 1:20 insulin to compound ratio at pH2 up to 12 hrs by atomic force microscopy

Structure (SMILES): O=C(O)c1cc(O)c(O)c(O)c1
- inhibition [1]: Active
- inhibition [2]: Active
- inhibition [3]: Active
- inhibition [4]: 90%
- inhibition [5]: Active
- inhibition [6]: Dose-dependent effect
- inhibition [7]: > 50%
- inhibition [8]: Active
- inhibition [9]: Active
